This is an account of results in ChEMBL document CHEMBL3769344 (J Med Chem, 2016).

The subject of experiment [1] is Influenza A virus. In words: Antiviral activity against Influenza A virus A/WSN/33(H1N1) expressing M2 proton channel S31N mutant infected in MDCK cells assessed as reduction in plaque formation preincubated for 30 mins followed by infection measured on day 2 post infection by naphthalene black dye-based assay. Type of experiment: functional, organism-based, A/WSN/1933(H1N1).

Experiment [2] concerns Influenza A virus. In words: Antiviral activity against Influenza A virus A/WSN/33(H1N1) expressing M2 proton channel S31N mutant infected in MDCK cells assessed as plaque formation at 1 uM preincubated for 30 mins followed by infection measured on day 2 post infection by naphthalene black dye-based assay relative to control. It counts as functional, A/WSN/1933(H1N1).

Take `OC1C2CC3CC1CC(NCc1cc(-c4cccs4)on1)(C3)C2` (configuration not stated): the EC50 in the experiment on Influenza A virus [1] amounted to 727 nM. Moreover, the Activity in the experiment on Influenza A virus [2] was 10%.
Regarding `c1c(CNC23CC4CC(CC(C4)C2)C3)noc1C1CC1`, the Activity in the experiment on Influenza A virus [2] is recorded as 42%.
Still for that read-out and setting: for `Clc1ccccc1-c1cc(CNC23CC4CC(CC(C4)C2)C3)no1` the value was 84%; for `CCCc1cc(CNC23CC4CC(CC(C4)C2)C3)no1`, 73%; for `O=C1C2CC3CC1CC(NCc1cc(-c4cccs4)on1)(C3)C2`, 31%.
As to `Oc1ccc(NC23CC4CC(CC(C4)C2)C3)c(O)c1`, in the experiment with Influenza A virus [1], the 50% effective concentration (EC50) is 3200 nM.
Take `c1csc(-c2nc(CNC34CC5CC(CC(C5)C3)C4)no2)c1`: the Activity in the experiment with Influenza A virus [2] is reported as 66%.
On to `Clc1ccccc1-c1nc(CNC23CC4CC(CC(C4)C2)C3)no1`, for which, in the experiment on Influenza A virus [2], the Activity is on record as 88%.
As for `c1csc(-c2cc(CNC34CC5COC(CC(C5)C3)C4)no2)c1` (configuration not stated), the Activity in the experiment on Influenza A virus [2] is recorded as 58%.
Regarding `c1csc(-c2cc(NC34CC5CC(CC(C5)C3)C4)no2)c1`, the EC50 in the experiment on Influenza A virus [1] came out at 353 nM. Further, the Activity in the experiment with Influenza A virus [2] was 32%.
As for `COc1ccsc1-c1cc(CNC23CC4CC(CC(O)(C4)C2)C3)no1`, the half-maximal effective concentration (EC50) with Influenza A virus [1] stood at 404 nM. For the same compound, the Activity in the experiment on Influenza A virus [2] was 33%.
Consider `c1ccc(-c2cc(CNC34CC5CC(CC(C5)C3)C4)no2)cc1`, for which the Activity in the experiment on Influenza A virus [2] was determined as 26%.
For the compound `c1c(CNC23CC4CC(CC(C4)C2)C3)noc1C1CCCCC1`, in the experiment with Influenza A virus [2], the Activity was determined as 57%.
Same read-out and setting: for `c1c(CNC23CC4CC(CC(C4)C2)C3)noc1C1CCC1` the value was 42%.
The same measure, in the same setting: for `Fc1cccc(F)c1-c1cc(CNC23CC4CC(CC(C4)C2)C3)no1` the value was 56%.
Turning to `COc1ccc(-c2nc(CNC34CC5CC(CC(C5)C3)C4)no2)c(OC)c1`, the Activity in the experiment on Influenza A virus [2] is recorded as 76%.
On to `c1cc(-c2nc(CNC34CC5CC(CC(C5)C3)C4)no2)cs1`, for which the Activity with Influenza A virus [2] came to 74%.
Same read-out and setting: as for `c1cc(-c2cc(CNC34CC5CC(CC(C5)C3)C4)no2)cs1`, the figure is 47%.
For `c1csc(-c2cc(CNC34CC5CC(C3)C3(CO3)C(C5)C4)no2)c1` (configuration not stated), in the experiment on Influenza A virus [2], the Activity is reported as 72%.
Consider `c1csc(-c2nnc(CNC34CC5CC(CC(C5)C3)C4)s2)c1`, for which the Activity in the experiment on Influenza A virus [2] was 39%.
Still for that read-out and setting: as for `COc1cccc(-c2cc(CNC34CC5CC(CC(C5)C3)C4)no2)c1`, the figure is 39%; as for `CC1(O)C2CC3CC1CC(NCc1cc(-c4cccs4)on1)(C3)C2` (configuration not stated), 27%.
As for `COc1ccc(-c2cc(CNC34CC5CC(CC(C5)C3)C4)no2)cc1`, the Activity in the experiment on Influenza A virus [2] is 59%.
Same read-out and setting: for `c1coc(-c2cc(CNC34CC5CC(CC(C5)C3)C4)no2)c1` the value was 47%; for `CC(C)c1cc(CNC23CC4CC(CC(C4)C2)C3)no1`, 66%.
Same read-out and setting: for `COc1ccccc1-c1nc(CNC23CC4CC(CC(C4)C2)C3)no1` the value was 66%.
For `C(NC12CC3CC(CC(C3)C1)C2)c1noc(C2CC2)n1`, the Activity with Influenza A virus [2] came to 82%.
On to `OC12CC3CC(C1)CC(NCc1cc(-c4cccs4)on1)(C3)C2`, for which the EC50 in the experiment on Influenza A virus [1] worked out at 510 nM. For the same compound, in the experiment with Influenza A virus [2], the Activity was found to be 40%.
In the same order, the values of `OC12CC3CC(O)(C1)CC(NCc1cc(-c4cccs4)on1)(C3)C2` are 2500 nM and 69%.
Regarding `COc1ccsc1-c1cc(CNC23CC4CC(CC(C4)C2)C3)no1`, the Activity with Influenza A virus [2] is listed as 39%.
As for `COc1ccc(-c2nc(CNC34CC5CC(CC(C5)C3)C4)no2)cc1`, the Activity in the experiment with Influenza A virus [2] is given as 92%.
Consider `NC12CC3CC(CC(C3)C1)C2` [AMANTADINE], for which the EC50 in the experiment on Influenza A virus [1] was determined as 22500 nM.

The EC50 is the concentration giving half of the maximal effect.
